The text below walks through data of ChEMBL document CHEMBL4304757, “Synthetic heterocyclic candidates as promising α-glucosidase inhibitors: An overview” (Eur J Med Chem, 2019).

Molecular target in one test: not listed separately
Nature of the test: Inhibition of yeast alpha-glucosidase using p-nitrophenyl-alpha-d-glucopyranoside as substrate preincubated for 10 mins followed by substrate addition measured after 30 mins. On the set-up: species or system Saccharomyces cerevisiae.
`Cc1cc2nc(-c3ccc(C(=O)N/N=C/c4ccco4)cc3)[nH]c2cc1C` showed a half-maximal inhibitory concentration (IC50) of 8.4 to 179 µM.

For the compound `O=[N+]([O-])c1ccc(-c2nn(-c3ccccc3)cc2-c2nc(-c3ccccc3)c(-c3ccccc3)[nH]2)cc1`, the IC50 is 2.7 to 23 µM. The compound `Cc1cc2nc(-c3ccc(C(=O)N/N=C/c4ccc(O)cc4O)cc3)[nH]c2cc1C` registered an IC50 of 8.4 to 9.9 µM.

In the case of `COc1ccc(/C=N/NC(=O)c2ccc(-c3nc4cc(C)c(C)cc4[nH]3)cc2)cc1`, the IC50 was in the range of 8.4 to 179 µM.

As to `Cc1cc2nc(-c3ccc(C(=O)N/N=C/c4ccncc4)cc3)[nH]c2cc1C`, the IC50 lay in the range of 8.4 to 179 µM.

The next test has as its target T1, Alpha glucosidase (Homo sapiens, UniProt O43451+P10253+P14410+Q2M2H8). The test is described as follows: Inhibition of alpha-glucosidase (unknown origin). The test is classed as protein assay.
Regarding `O=C(Cn1cc(Cn2c(-c3ccc(F)cc3)nc(-c3ccccc3)c2-c2ccccc2)nn1)Nc1ccc(Cl)cc1Cl`, the IC50 lay within 15 to 48 µM. `O=C(C[C@@H](c1cccc([N+](=O)[O-])c1)c1c[nH]c2ccccc12)c1ccccc1` came in with an IC50 of 4.3 to 43 µM.

The compound `O=C1NC(=O)/C(=C/c2ccc(-c3nc4ccccc4n3Cc3ccc(Cl)cc3)cc2)S1` had an IC50 of 0.54 µM. On to `COc1ccc(NC(=O)Cn2cc(Cn3c(-c4cccs4)nc(-c4ccccc4)c3-c3ccccc3)nn2)cc1`, for which the IC50 was 15 to 48 µM.

Take `Cn1cc(-c2nnc(-c3ccc(C(c4c(-c5ccccc5)[nH]c5ccccc45)c4c(-c5ccccc5)[nH]c5ccccc45)cc3)o2)c2ccccc21`: the IC50 was 20 to 292 µM. On to `CCOc1ccccc1NC(=O)Cn1cc(Cn2c(-c3ccccc3F)nc(-c3ccccc3)c2-c2ccccc2)nn1`, for which the IC50 is 15 to 48 µM.

In the case of `O=C(Cc1ccc(Cl)c(Cl)c1)N/N=C1\C(=O)Nc2cc(Br)ccc21`, the IC50 was in the range of 2.2 to 83 µM. `CCOc1ccc(NC(=O)Cn2cc(Cn3c(-c4ccc(C(=O)OC)cc4)nc(-c4ccccc4)c3-c3ccccc3)nn2)cc1` gave a concentration for half-maximal inhibition (IC50) of 15 to 48 µM. Take `O=C(C[C@@H](c1ccc(Cl)cc1Cl)c1c[nH]c2ccccc12)c1ccccc1`: the IC50 lay in the range of 4.3 to 43 µM.

The compound `O=C(C[C@@H](c1ccc(Br)cc1)c1c[nH]c2ccccc12)c1ccccc1` gave an IC50 of 4.3 to 43 µM. Take `c1ccc2c(-c3nnc(-c4ccc(C(c5c[nH]c6ccccc56)c5c[nH]c6ccccc56)cc4)o3)c[nH]c2c1`: the IC50 is 20 to 292 µM. `Cc1[nH]c2ccccc2c1-c1nnc(-c2ccc(C(c3c[nH]c4ccccc34)c3c[nH]c4ccccc34)cc2)o1` returned an IC50 of 20 to 292 µM.

Consider `Cc1[nH]c2ccccc2c1-c1nnc(-c2ccc(C(c3c[nH]c4ccc(Cl)cc34)c3c[nH]c4ccc(Cl)cc34)cc2)o1`, for which the half-inhibitory concentration (IC50) is 20 to 292 µM. The same measure, in the same setting: then `O=C(C[C@@H](c1c(Cl)cccc1Cl)c1c[nH]c2ccccc12)c1ccccc1`, with 4.3 µM; and `O=C(C[C@@H](c1cccs1)c1c[nH]c2ccccc12)c1ccccc1`, with 4.3 to 43 µM. On the same count and under the same terms, as for `O=C1Nc2cc(Cl)ccc2/C1=C/c1ccc(-c2nnc(-c3cc(O)cc(O)c3)o2)cc1`, the figure is 1.2 µM; as for `O=C(C[C@@H](c1ccc(Cl)cc1)c1c[nH]c2ccccc12)c1ccccc1`, 4.3 to 43 µM. On the same count and under the same terms, then `Cn1cc(-c2nnc(-c3ccc(C(c4c[nH]c5ccc(C#N)cc45)c4c[nH]c5ccc(C#N)cc45)cc3)o2)c2ccccc21`, with 20 to 292 µM; and `CCOC(=O)CC(=O)OCC` [MALONIC ACID DIETHYL ESTER], with 5 to 16 µM. Consider `CCCCCCCCCCCC(=O)N/N=C1\C(=O)Nc2ccccc21`, for which the IC50 lay in the range of 2.2 to 83 µM. Compound `O=C(C[C@@H](c1cccc(Br)c1)c1c[nH]c2ccccc12)c1ccccc1` gave an IC50 of 4.3 to 43 µM. For `Clc1ccc2[nH]cc(C(c3ccc(-c4nnc(-c5c[nH]c6ccccc56)o4)cc3)c3c[nH]c4ccc(Cl)cc34)c2c1`, the concentration for half-maximal inhibition (IC50) lay in the range of 20 to 292 µM. As for `O=C(C[C@@H](c1ccccc1)c1c[nH]c2ccccc12)c1ccc2ccccc2c1`, the IC50 is 4.3 to 43 µM. Still for that read-out and setting: then `O=C(C[C@@H](c1ccc(Cl)cc1)c1c[nH]c2ccccc12)c1ccc2ccccc2c1`, with 4.3 to 43 µM; and `COC(=O)c1ccc(-c2nc(-c3ccccc3)c(-c3ccccc3)n2Cc2cn(CC(=O)Nc3cc(Cl)ccc3Cl)nn2)cc1`, with 15 to 48 µM. Still for that read-out and setting: as for `Cc1ccc(C(=O)N/N=C2\C(=O)Nc3ccc(Cl)cc32)cc1`, the figure is 2.2 to 83 µM; as for `Cc1[nH]c2ccccc2c1-c1nnc(-c2ccc(C(c3c[nH]c4ccc(C#N)cc34)c3c[nH]c4ccc(C#N)cc34)cc2)o1`, 20 to 292 µM. For `COc1ccc(-c2nc(-c3ccccc3)c(-c3ccccc3)n2Cc2cn(CC(=O)Nc3ccc(Cl)cc3Cl)nn2)cc1OC`, the half-inhibitory concentration (IC50) fell in the range of 15 to 48 µM. As for `Cc1ccc(NC(=O)Cn2cc(Cn3c(-c4cccc(F)c4)nc(-c4ccccc4)c3-c3ccccc3)nn2)c(C)c1`, the IC50 lay within 15 to 48 µM. `Cc1[nH]c2ccccc2c1-c1nnc(-c2ccc(C(c3c(C)n(C)c4ccccc34)c3c(C)n(C)c4ccccc34)cc2)o1` returned an IC50 of 20 to 292 µM. `O=C1CSC(=O)N1` [THIAZOLIDINEDIONE] had an IC50 of 0.54 to 2.2 µM. As to `c1ccc(-c2[nH]c3ccccc3c2C(c2ccc(-c3nnc(-c4c[nH]c5ccccc45)o3)cc2)c2c(-c3ccccc3)[nH]c3ccccc23)cc1`, the concentration for half-maximal inhibition (IC50) was 20 to 292 µM. The compound `O=C(Cc1ccc(Cl)cc1Cl)N/N=C1\C(=O)Nc2cc(Br)ccc21` had an IC50 of 2.2 µM. The same measure, in the same setting: as for `Cc1c(C(c2ccc(-c3nnc(-c4c[nH]c5ccccc45)o3)cc2)c2c(C)n(C)c3ccccc23)c2ccccc2n1C`, the figure is 20 to 292 µM; as for `O=C(C[C@@H](c1cccs1)c1c[nH]c2ccccc12)c1ccc2ccccc2c1`, 4.3 to 43 µM; as for `Cn1cc(-c2nnc(-c3ccc(C(c4c[nH]c5ccccc45)c4c[nH]c5ccc(Cl)cc45)cc3)o2)c2ccccc21` (stereo not given), 2 µM. As to `COc1ccc(Cc2nnc(-c3ccc(Cl)cc3)n2CC(=O)NNC(=S)Nc2ccc(Cl)cc2)cc1`, the IC50 was 3.4 µM. The compound `Cc1[nH]c2ccccc2c1-c1nnc(-c2ccc(C(c3cn(C)c4ccccc34)c3cn(C)c4ccccc34)cc2)o1` returned a 50% inhibitory concentration (IC50) of 20 to 292 µM. `COc1ccc([C@H](CC(=O)c2ccccc2)c2c[nH]c3ccccc23)cc1` returned a half-inhibitory concentration (IC50) of 4.3 to 43 µM. For the compound `Cc1[nH]c2ccccc2c1-c1nnc(-c2ccc(C(c3c[nH]c4ccc(Br)cc34)c3c[nH]c4ccc(Br)cc34)cc2)o1`, the IC50 was in the range of 20 to 292 µM. As to `O=C(C[C@@H](c1ccccc1)c1c[nH]c2ccccc12)c1ccccc1`, the IC50 lay within 4.3 to 43 µM. On to `Cc1ccccc1NC(=O)Cn1cc(Cn2c(-c3cccc(F)c3)nc(-c3ccccc3)c2-c2ccccc2)nn1`, for which the IC50 is 15 to 48 µM.

`Cc1cccc([C@H](CC(=O)c2ccccc2)c2c[nH]c3ccccc23)c1` came in with an IC50 of 4.3 to 43 µM. `COc1ccc(Cc2nnc(-c3ccc(Cl)cc3)n2Cc2nn(CN3CCN(C)CC3)c(=S)o2)cc1` yielded a concentration for half-maximal inhibition (IC50) of 4.3 µM. `CCCN1C(=O)/C(=N\NC(=O)Cc2ccc(Cl)cc2Cl)c2ccccc21`: the IC50 was 2.2 to 83 µM. `Cc1ccccc1NC(=O)Cn1cc(Cn2c(-c3ccc(Br)cc3)nc(-c3ccccc3)c2-c2ccccc2)nn1` registered a 50% inhibitory concentration (IC50) of 15 to 48 µM. With `Cc1c(C(c2ccc(-c3nnc(-c4cn(C)c5ccccc45)o3)cc2)c2c(C)n(C)c3ccccc23)c2ccccc2n1C`, the half-maximal inhibitory concentration (IC50) lay in the range of 20 to 292 µM. In turn, `COC(=O)CC(C)=O` returned an IC50 of 19 to 25 µM. As for `Cn1cc(C(c2ccc(-c3nnc(-c4c[nH]c5ccccc45)o3)cc2)c2cn(C)c3ccccc23)c2ccccc21`, the IC50 was 20 to 292 µM. `Cn1cc(-c2nnc(-c3ccc(C(c4c[nH]c5ccc(Br)cc45)c4c[nH]c5ccc(Br)cc45)cc3)o2)c2ccccc21` displayed an IC50 of 20 to 292 µM. `COc1ccccc1-c1nc(-c2ccccc2)c(-c2ccccc2)n1Cc1cn(CC(=O)Nc2ccc(C)cc2)nn1` returned an IC50 of 15 to 48 µM.

Consider `Cn1cc(-c2nnc(-c3ccc(C(c4c[nH]c5ccc(Cl)cc45)c4c[nH]c5ccc(Cl)cc45)cc3)o2)c2ccccc21`, for which the IC50 was in the range of 20 to 292 µM.

`Cn1cc(-c2nnc(-c3ccc(C(c4c[nH]c5ccccc45)c4c[nH]c5ccccc45)cc3)o2)c2ccccc21` showed an IC50 of 20 to 292 µM. The same measure, in the same setting: then `N#Cc1ccc2[nH]cc(C(c3ccc(-c4nnc(-c5c[nH]c6ccccc56)o4)cc3)c3c[nH]c4ccc(C#N)cc34)c2c1`, with 20 to 292 µM. The compound `CCOc1ccccc1NC(=O)Cn1cc(Cn2c(-c3cccc(Br)c3)nc(-c3ccccc3)c2-c2ccccc2)nn1` registered an IC50 of 15 µM and a Ki of 14 µM.

The compound `O=C1Nc2cc(Br)ccc2/C1=N/NC(=O)c1ccccc1O` returned an IC50 of 2.2 to 83 µM.

For the compound `CCOc1ccc(NC(=O)Cn2cc(Cn3c(-c4cccc(Cl)c4)nc(-c4ccccc4)c3-c3ccccc3)nn2)cc1`, the IC50 was 15 to 48 µM. The same measure, in the same setting: then `Cn1cc(-c2nnc(-c3ccc(C(c4cn(C)c5ccccc45)c4cn(C)c5ccccc45)cc3)o2)c2ccccc21`, with 20 to 292 µM; and `CCn1c2ccccc2c2cc(NC(=O)CSc3nc4ccccc4[nH]3)ccc21`, with 0.17 µM; and `Cc1ccc(NC(=O)Cn2cc(Cn3c(-c4cccc(Cl)c4)nc(-c4ccccc4)c3-c3ccccc3)nn2)c(C)c1`, with 15 to 48 µM. For the compound `COc1ccc([C@H](CC(=O)c2ccc3ccccc3c2)c2c[nH]c3ccccc23)cc1`, the IC50 lay within 4.3 to 43 µM. The compound `Cc1ccc([C@H](CC(=O)c2ccccc2)c2c[nH]c3ccccc23)cc1` displayed an IC50 of 4.3 to 43 µM. As to `O=C(Cn1cc(Cn2c(-c3ccc(Br)cc3)nc(-c3ccccc3)c2-c2ccccc2)nn1)Nc1ccc(F)cc1`, the IC50 is 15 to 48 µM. On the same count and under the same terms, as for `COc1ccc(NC(=O)Cn2cc(Cn3c(-c4cccc(Cl)c4)nc(-c4ccccc4)c3-c3ccccc3)nn2)cc1`, the figure is 15 to 48 µM; as for `Cc1[nH]c2ccccc2c1-c1nnc(-c2ccc(C(c3c(-c4ccccc4)[nH]c4ccccc34)c3c(-c4ccccc4)[nH]c4ccccc34)cc2)o1`, 20 to 292 µM; as for `Cc1ccc([C@H](CC(=O)c2ccc3ccccc3c2)c2c[nH]c3ccccc23)cc1`, 4.3 to 43 µM.

The target of another test is T1, Alpha glucosidase. The test is described as follows: Inhibition of alpha-glucosidase (unknown origin) using p-nitrophenyl-alpha-d-glucopyranoside as substrate preincubated for 15 mins followed by substrate addition measured after 30 mins. It counts as protein assay.
Compound `Cc1ccc(C(c2c[nH]c3ccc(C(=O)NNS(=O)(=O)c4cccc([N+](=O)[O-])c4)cc23)c2c[nH]c3ccc(C(=O)NNS(=O)(=O)c4cccc([N+](=O)[O-])c4)cc23)cc1` returned an IC50 of 2.1 µM.

Compound `COc1ccc(-c2csc(N/N=C3\C(=O)N(Cc4ccccc4F)c4ccc(C)cc43)n2)cc1` yielded an IC50 of 5.3 to 35 µM.

In the case of `COc1ccc(-c2csc(NC(=O)CSc3nnc(-c4ccc(Br)cc4)c(-c4ccc(Br)cc4)n3)n2)cc1`, the IC50 is 2.8 µM.
